Measured values taken from publication PMC7177633, “Effective Cellular Transport of Ortho-Halogenated Sulfonamide Derivatives of Metformin Is Related to Improved Antiproliferative Activity and Apoptosis Induction in MCF-7 Cells” (International Journal of Molecular Sciences, 2020).

Legend:
OCTs = assay: Inhibition of [14C]choline uptake in MCF-7 cells (competitive inhibition assay); format: cell-based, human; details: mean ± SD (n = 3)
Procedure: The following day, after removal of the culture medium, the cells were carefully washed with prewarmed HBSS (Hanks’ balanced salt solution) containing 125 mM NaCl, 4.8 mM KCl, 1.2 mM MgSO4, 1.2 mM KH2PO4, 1.3 mM CaCl2, 5.6 mM glucose and 25 mM HEPES (pH 7.4). […] Then, the cells were washed three times with ice-cold HBSS (500 μL) and were lysed with 250 μL of 0.1-M NaOH in the ice bath, and the lysate was mixed with 1.0 mL of an emulsifier safe cocktail (PerkinElmer, Waltham, MA, USA). The radioactivity was measured by liquid scintillation counting (MicroBeta^2 counter, PerkinElmer, Waltham, MA, USA). The studies were carried out with the use of at least three replicates from the same cell passage.

MCF-7 cells = assay: Uptake in the presence of OCT and MATE inhibitors, MCF-7 cells; format: in vitro ADME, human; details: for uptake in the presence of cimetidine, MCF-7 / uptake in the presence of disopyramide, MCF-7 / uptake in the presence of lopinavir, MCF-7 / uptake in the presence of methenamine, MCF-7: compound and inhibitor 400 and 800 µmol/L, 10 min, 37 °C; for interactions with OCT, PMAT and MATE1 transporters, MCF-7: summary from uptake with inhibitors
Procedure: The uptake of sulfonamide derivatives of metformin (1–9) in MCF-7 and MDA-MB-231 cells was studied also in the presence of disopyramide, cimetidine (OCT1 and 3 inhibitors), lopinavir (OCT and PMAT inhibitor) and methenamine (MATE and OCT2 inhibitors). The cells were incubated (37 °C, 10 min) with compounds 1–9 at concentrations of 400 and 800 μmol/L and inhibitors (disopyramide, cimetidine, lopinavir or methenamine) in 250 μL of prewarmed HBSS buffer. The protocol of determination of the compound concentration was as described above.

MDA-MB-231 cells = assay: Intracellular GSH and GSSG, MDA-MB-231; format: cell-based, human
Procedure: The quantitative determination of glutathione and glutathione disulfide was performed using the enzymatic recycling method according to the protocol of Rahman. The cells were seeded at a density of 2 × 10^5 per well in a 6-well plate and cultured for 48 h. Then, the cells were treated with tested compounds 1, 4 and 7 at their respective ¼ and ½ IC50 values for MCF-7 and MDA-MB-231 cells. Additionally, controls with pure medium, AAPH (2,2′-Azobis(2-methylpropionamidine) dihydro-chloride, Sigma Aldrich, St. Louis, MO, USA) and ascorbic acid (Polish Chemical Reagents, Poland) were performed. The cells were incubated with compounds for another 24 h, then washed twice with 2 mL of cold, Ca^2+-/Mg^2+-free PBS (Biomed Lublin, Lublin, Poland). The cells were harvested using 1-mL accutase (Sigma Aldrich, St. Louis, MO, USA), and the wells were washed with 1 mL of cold growth medium. The cells were transferred to prechilled 2.0-mL Eppendorf tubes and centrifuged at 1000× g for 5 min at 4 °C. The supernatant was discarded, the pellets were resuspended in 1 mL of cold PBS, the number of cells was determined in each sample and the cellular suspension was centrifuged again. PBS was discarded, and the pellets were stored covered with 30-µL PBS at –70 °C. The following day, the cells were suspended in 0.5 mL of ice-cold extraction buffer (0.1% Triton-X (Polish Chemical Reagents, Gliwice, Poland) and 0.6% sulfosalicylic acid (Sigma Aldrich) in a potassium phosphate buffer with EDTA (Sigma Aldrich)) and sonicated in icy water for 3 min with vortexing every 30 s. The cells were frozen once again at −80 °C, defrosted on ice and frozen once again. Following the second freeze–thaw cycle, the cells were centrifuged at 1500× g for 5 min at 4 °C, and then, immediately, the supernatant was transferred to prechilled Eppendorf tubes. The samples were divided into two parts: one was used to measure GSH, and the other one was derivatized by an addition of 4 µL of 2-vinylpyridine (diluted 1:10 with phosphate buffer) (Sigma Aldrich, St. Louis, MO, USA) to determine the GSSG content.
GSH measurements included an addition of 20 µL of the tested sample, blank or GSH standard, 120 µL of the mixture of an equal volume of DTNB solution (2 mg dissolved in 3 mL of phosphate buffer, Sigma Aldrich) and glutathione reductase (10 U in 3 mL of phosphate buffer, Sigma Aldrich, St. Louis, MO, USA) and 30 s of incubation to allow the conversion of GSSG to GSH. The final step included the addition of 60 µL of β-NADPH (2 mg dissolved in 3 mL of phosphate buffer, Sigma Aldrich). The absorbance was read immediately at 415 nm in a microplate reader (Bio-Rad), and the measurements were taken every 30 s for 2 min (6 readings in total). The amount of GSH was calculated on the basis of the calibration curve prepared using GSH (Sigma Aldrich, St. Louis, MO, USA) at concentrations ranging from 0.040 to 2.6 nmol/mL.
The quantification of GSSG in the test samples was performed according to the same procedure as GSH. The samples treated with 2-VP were incubated for one hour at room temperature, and then, 20 µL of the tested sample was analyzed using the same reagents which were applied in the GSH measurements. The amount of GSSG was calculated on the basis of the calibration curve, prepared using GSSG (Sigma Aldrich) at concentrations of 0.040–2.6 nmol/mL. The results are presented as mean ± SD, n = 6–8 and expressed as nmol per […].

Row | Compound | IC50 (OCTs) | uptake in the presence of cimetidine, MCF-7 (MCF-7 cells) | uptake in the presence of disopyramide, MCF-7 (MCF-7 cells) | uptake in the presence of lopinavir, MCF-7 (MCF-7 cells) | uptake in the presence of methenamine, MCF-7 (MCF-7 cells) | interactions with OCT, PMAT and MATE1 transporters, MCF-7 (MCF-7 cells) | GSH (MDA-MB-231 cells; MDA-MB-231, 1/2 × IC50, 24 h) | GSH:GSSG Ratio (MDA-MB-231 cells; MDA-MB-231, 1/2 × IC50, 24 h) | GSSG (MDA-MB-231 cells; MDA-MB-231, 1/2 × IC50, 24 h) | GSH (MDA-MB-231 cells; MDA-MB-231, 1/4 × IC50, 24 h) | GSH:GSSG Ratio (MDA-MB-231 cells; MDA-MB-231, 1/4 × IC50, 24 h) | GSSG (MDA-MB-231 cells; MDA-MB-231, 1/4 × IC50, 24 h)
1 | CN(C)C(=N)N=C(N)NS(=O)(=O)c1ccccc1Cl [Compound 1] | 1050 ± 14.2 µM | significantly decreased | Lower uptake, however, not statistically significant | significantly higher uptake | significantly decreased | OCT1, OCT3, PMAT, MATE1 | 242.0 ± 47.0 nmol/1 mln Cells | 12.1 | 19.9 ± 2.0 nmol/1 mln Cells | 238.0 ± 4.3 nmol/1 mln Cells | 12.2 | 19.5 ± 2.2 nmol/1 mln Cells
2 | CN(C)C(=N)N=C(N)NS(=O)(=O)c1ccccc1Br [Compound 4] | 1670 ± 8.5 µM | did not change | increased the uptake | increased the uptake | did not change | OCT1, PMAT | 242.1 ± 13.7 nmol/1 mln Cells | 12.3 | 19.6 ± 1.4 nmol/1 mln Cells | 250.2 ± 12.1 nmol/1 mln Cells | 12.5 | 19.9 ± 2.3 nmol/1 mln Cells
3 | CN(C)C(=N)N=C(N)NS(=O)(=O)c1ccccc1F [Compound 7] | 6354 ± 12.9 µM | decrease in uptake |  | increase in its uptake |  | OCT3, PMAT | 248.7 ± 13.3 nmol/1 mln Cells | 11.3 | 21.9 ± 2.9 nmol/1 mln Cells | 265.0 ± 15.9 nmol/1 mln Cells | 11.8 | 22.5 ± 0.9 nmol/1 mln Cells
